The target in one assay is αvβ3 (Homo sapiens, UniProt P05106+P06756). The note with it: cited from earlier work.
In the next assay the test system is Hut78 T-cells. Description: Transwell migration of Hut78 T-cells through collagen type-IV. Format: cell-based, human. The method, then:
FIGS. 4A-4H. […] Briefly, membranes from transwell migration chambers were coated with either native collagen type-IV or denatured collagen type-IV. T-cell variants were incubated with non-specific control peptide CP, or the RGDKGE (SEQ ID NO: 1)-containing collagen peptide (P2) and seed on the coated transwell membranes. T-cells were allowed to migrate in the presence or absence of SDF-1 added to the lower chamber for approximately 1.5 hours. Cell migration was quantified by counting the number of crystal violet stained cells that had migrated through to the underside of the coated membrane. FIG. 4A. Jurkat T-cell migration through denatured collagen type-IV in the presence of non-specific control peptide CP or RGDKGE (SEQ ID NO: 1)-containing collagen peptide P2 with SDF-1. FIG. 4B. Jurkat T-cell migration through native collagen type-IV in the presence of non-specific control peptide CP or RGDKGE (SEQ ID NO: 1)-containing collagen peptide P2 with SDF-1. FIG. 4C. Cem/C1 T-cell migration through denatured collagen type-IV in the presence of non-specific control peptide CP or RGDKGE (SEQ ID NO: 1)-containing collagen peptide P2 with SDF-1. FIG. 4D. Cem/C1 T-cell migration through native collagen type-IV in the presence of non-specific control peptide CP or RGDKGE (SEQ ID NO: 1)-containing collagen peptide P2. FIG. 4E. Hut78 T-cell migration through denatured collagen type-IV in the presence of non-specific control peptide CP or RGDKGE (SEQ ID NO: 1)-containing collagen peptide P2. FIG. 4F. Hut78 T-cell migration through native collagen type-IV in the presence of non-specific control peptide CP or RGDKGE (SEQ ID NO: 1)-containing collagen peptide P2. FIG. 4G Primary CD8+ T-cell migration through denatured collagen type-IV in the presence of non-specific control peptide CP or RGDKGE (SEQ ID NO: 1)-containing collagen peptide P2 with SDF-1. FIG. 4H. CD8+ T-cell migration through native collagen type-IV in the presence of non-specific control peptide CP or RGDKGE (SEQ ID NO: 1)-containing collagen peptide P2 with SDF-1. Data bars indicate the mean cell migration±S.E. *P<0.05.
Given our new observations, and the fact that many tumor types as well as immunosuppressive macrophages can secrete the small soluble RGDKGE (SEQ ID NO: 1) collagen peptide, we next sought to determine whether this soluble collagen peptide could impact T-cell migration through denatured collagen type-IV, a critical ECM component shown to be selectively enriched in tumor vessels. Briefly, membranes from transwell migration chambers were coated with either native collagen type-IV or denatured collagen type-IV. […] Cell migration was quantified following staining cells with crystal violet (6,8). […]

In the next assay the test system is activated fibroblasts. The note with it: cited from earlier work.
The test system of a further assay is ID8-VEGF ovarian tumors. The assay is described as follows: T-cell levels in malignant ascites fluid of mice with ID8-VEGF ovarian tumors, flow cytometry. It counts as in vivo, C57BL/6 mice. The note with it: compared to control antibody. As for the experimental part: Data bars represent the mean percentage of CD8+ T-cells (+SE from 4 mice per condition) in the ascites fluid from each experimental group.
Mice (C57BL/6) were injected intraperitoneally with ID8-VEGF ovarian tumor cells. ID8-VEGF tumor cells were allowed to grow within the peritoneal cavity of mice for 4-weeks to allow formation of malignant ascites fluid and solid tumors. Beginning at 4 weeks, mice were injected subcutaneously with 100 μg per mouse 2× per week with non-specific control antibody (Ab Cont) or anti-HU177 antibody (Anti-HU177). At 12 weeks, mice were sacrificed and malignant ascites fluid was collected. The relative levels of CD4+ Treg-cells within the malignant ascites fluid was quantified by flow cytometry. Data bars represent the mean percentage of CD4+ Treg cells+SE from 4 mice per condition in the ascites fluid from each experimental group.
Given the surprising results that the Mab HU177 enhanced T-cell migration on denatured collagen type-IV, we next evaluated if administration of HU-177 antibody could increase the levels of CD8+ T-cells found in malignant ascites fluid. […] The relative levels of CD8+ T-cells within the malignant ascites fluid was quantified by flow cytometry, for 4 mice per experimental condition. […]
On the technique in general: In flow cytometry, cells or beads pass a laser one at a time.

Another assay relates to tumor. The note with it: combination with anti-PDL-1 antibody; cited from earlier work.

αvβ3, sequence (P06756 31-889 limits assumed): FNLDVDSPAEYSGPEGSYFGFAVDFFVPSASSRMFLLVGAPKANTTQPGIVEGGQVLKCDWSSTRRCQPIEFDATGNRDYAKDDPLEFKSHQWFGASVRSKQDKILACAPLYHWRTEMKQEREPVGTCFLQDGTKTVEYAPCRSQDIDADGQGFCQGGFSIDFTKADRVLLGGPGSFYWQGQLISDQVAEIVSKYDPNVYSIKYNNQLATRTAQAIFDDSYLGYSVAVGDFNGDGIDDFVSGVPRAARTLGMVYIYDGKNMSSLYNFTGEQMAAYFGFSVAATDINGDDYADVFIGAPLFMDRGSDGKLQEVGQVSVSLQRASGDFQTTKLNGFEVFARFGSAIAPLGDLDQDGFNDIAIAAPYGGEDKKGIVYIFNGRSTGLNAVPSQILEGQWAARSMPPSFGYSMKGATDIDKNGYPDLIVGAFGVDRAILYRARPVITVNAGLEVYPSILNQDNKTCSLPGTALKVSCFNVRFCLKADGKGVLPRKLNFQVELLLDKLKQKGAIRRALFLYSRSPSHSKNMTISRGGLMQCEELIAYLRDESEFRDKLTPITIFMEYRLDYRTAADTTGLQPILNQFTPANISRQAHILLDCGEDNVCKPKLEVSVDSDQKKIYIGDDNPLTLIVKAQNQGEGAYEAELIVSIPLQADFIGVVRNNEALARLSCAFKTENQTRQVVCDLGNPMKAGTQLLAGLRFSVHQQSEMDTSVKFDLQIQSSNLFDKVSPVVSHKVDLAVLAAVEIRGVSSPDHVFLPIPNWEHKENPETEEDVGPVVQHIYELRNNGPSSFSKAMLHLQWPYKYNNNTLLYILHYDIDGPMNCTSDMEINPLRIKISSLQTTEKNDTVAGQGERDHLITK
αvβ3, sequence (P06756 891-1048 partner limits assumed): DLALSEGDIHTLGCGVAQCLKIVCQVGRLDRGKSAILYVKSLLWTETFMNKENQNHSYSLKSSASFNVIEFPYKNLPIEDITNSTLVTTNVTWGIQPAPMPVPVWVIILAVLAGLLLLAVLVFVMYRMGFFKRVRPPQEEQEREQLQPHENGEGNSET
αvβ3, sequence (P05106 27-788): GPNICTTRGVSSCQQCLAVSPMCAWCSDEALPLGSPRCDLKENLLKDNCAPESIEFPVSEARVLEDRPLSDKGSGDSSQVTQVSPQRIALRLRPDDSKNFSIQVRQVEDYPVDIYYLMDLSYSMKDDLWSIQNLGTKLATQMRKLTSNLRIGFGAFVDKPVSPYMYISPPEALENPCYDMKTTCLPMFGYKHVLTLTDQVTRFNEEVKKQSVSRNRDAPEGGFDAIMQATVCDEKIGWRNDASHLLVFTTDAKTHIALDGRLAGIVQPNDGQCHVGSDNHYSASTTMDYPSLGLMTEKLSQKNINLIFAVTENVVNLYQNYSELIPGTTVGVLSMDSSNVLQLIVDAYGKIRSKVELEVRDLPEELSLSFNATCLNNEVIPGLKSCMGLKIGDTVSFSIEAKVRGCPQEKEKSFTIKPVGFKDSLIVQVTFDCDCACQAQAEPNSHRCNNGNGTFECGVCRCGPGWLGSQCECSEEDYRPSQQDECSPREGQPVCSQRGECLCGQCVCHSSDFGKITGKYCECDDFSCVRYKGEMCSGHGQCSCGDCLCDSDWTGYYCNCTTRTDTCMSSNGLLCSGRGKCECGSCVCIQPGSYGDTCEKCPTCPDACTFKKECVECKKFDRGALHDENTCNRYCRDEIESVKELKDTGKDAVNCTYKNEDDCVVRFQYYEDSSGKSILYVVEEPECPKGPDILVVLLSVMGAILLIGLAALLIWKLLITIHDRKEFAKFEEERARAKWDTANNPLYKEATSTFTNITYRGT

Turning to “KGDRGDAPG (CKGDRGDAPGC; Synthetic: Synthetic collagen RGD containing peptide P-1) [synthetic collagen RGD peptide, Colla1 742-750]”, the “binding to αvβ3” value with αvβ3 is “bound”.

For “Mab HU177: antibody specifically directed to denatured forms of collagen, cryptic CPGFPGFC (SEQ ID NO: 16) epitope”, the “Hut78 T-cell migration” value in the assay with Hut78 T-cells (denatured collagen type-IV, fab fragments, compared to control antibody) is recorded as “significantly enhanced”. Besides, the “activated fibroblast migration and accumulation within tumors in vivo” value in the assay on activated fibroblasts is reported as “inhibits”. Also, in the assay on ID8-VEGF ovarian tumors (100 μg per mouse subcutaneously twice a week from week 4, ascites at 12 weeks), the “mean % Treg cells in the ascites fluid” value is “significant decrease”. In the assay on ID8-VEGF ovarian tumors (100 μg/mouse subcutaneously twice a week from week 4, ascites at 12 weeks), the “mean percentage of CD8+ T-cells in the ascites fluid” value is “significant increase”. The “anti-tumor efficacy of an immune checkpoint inhibitor (anti-PDL-1) in vivo” value in the assay with tumor is reported as “enhance the therapeutic activity”.

CQGPGGAAGGC [CP, reference compound]: in the assay with Hut78 T-cells (native collagen type-IV, peptide, absence of SDF-1), the “Hut78 T-cell migration” value is given as “nor the non-specific control peptide had any significant effect”.
